# Source: patent publication US20180140602A1, “COMBINATION OF CHIMERIC ANTIGEN RECEPTOR THERAPY AND AMINO PYRIMIDINE DERIVATIVES” (Novartis AG, priority 2015, published 2018)
# Target: T1, BTK (Homo sapiens, UniProt Q06187)
# T1 construct: Whole blood was collected with written consent from healthy volunteers by venipuncture into sodium heparin vials; endogenous in cells; host or cells: B cells in heparinised whole blood of healthy human volunteers
# Experiment: Inhibition of BTK activity in blood (anti-IgM/IL-4 B cell activation, CD69);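 note: heparinized blood from healthy donors, read by flow cytometry, with inhibition derived from the percentage of CD69-positive cells within the CD19-positive lymphocyte gate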
# Type: cell-based
# Conditions: human whole blood, anti-IgM/IL-4, CD69 on CD19+ cells, 20 hours
# T1 sequence (Q06187 whole entry): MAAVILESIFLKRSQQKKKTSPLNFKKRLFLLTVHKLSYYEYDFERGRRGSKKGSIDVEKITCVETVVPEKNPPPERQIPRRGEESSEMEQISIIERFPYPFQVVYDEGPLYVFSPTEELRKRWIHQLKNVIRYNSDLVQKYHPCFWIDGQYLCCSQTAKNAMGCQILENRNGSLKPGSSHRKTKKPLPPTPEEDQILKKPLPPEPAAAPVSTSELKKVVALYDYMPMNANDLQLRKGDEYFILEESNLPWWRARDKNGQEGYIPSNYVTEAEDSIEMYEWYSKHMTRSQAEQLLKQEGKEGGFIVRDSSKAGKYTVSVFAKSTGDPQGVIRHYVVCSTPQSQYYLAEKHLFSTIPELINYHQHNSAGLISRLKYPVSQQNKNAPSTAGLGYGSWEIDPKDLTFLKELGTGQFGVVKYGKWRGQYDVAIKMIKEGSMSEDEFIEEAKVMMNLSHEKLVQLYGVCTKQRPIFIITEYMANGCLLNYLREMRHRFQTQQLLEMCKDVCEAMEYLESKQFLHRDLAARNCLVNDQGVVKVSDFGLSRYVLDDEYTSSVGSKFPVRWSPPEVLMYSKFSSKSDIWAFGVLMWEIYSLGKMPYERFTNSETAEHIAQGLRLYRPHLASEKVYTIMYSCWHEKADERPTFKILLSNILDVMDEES
row,SMILES,IC50 [nM]
1,"C=CC(=O)NC1(COc2c(N)ncnc2-c2cc(F)cc(NC(=O)c3ccc(C4CC4)cc3F)c2C)CC1 [Example 16, N-(3-(5-((1-Acrylamidocyclopropyl)methoxy)-6-aminopyrimidin-4-yl)-5-fluoro-2-methylphenyl)-4-cyclopropyl-2-fluorobenzamide]",558
2,"C=CC(=O)N1C[C@@H](C#N)C[C@H]1COc1c(N)ncnc1-c1cc(F)cc(NC(=O)c2ccc(C3CC3)cc2F)c1C [Example 40, N-(3-(5-(((2S,4S)-1-Acryloyl-4-cyanopyrrolidin-2-yl)methoxy)-6-aminopyrimidin-4-yl)-5-fluoro-2-methylphenyl)-4-cyclopropyl-2-fluorobenzamide]",80
3,"CC#CC(=O)N1C[C@@H](OC)C[C@H]1COc1c(N)ncnc1-c1cc(F)cc(NC(=O)c2ccc(C3CC3)cc2F)c1C [Example 30, N-(3-(6-Amino-5-(((2S,4S)-1-(but-2-ynoyl)-4-methoxypyrrolidin-2-yl)methoxy)pyrimidin-4-yl)-5-fluoro-2-methylphenyl)-4-cyclopropyl-2-fluorobenzamide]",222
4,"C=CC(=O)N(C)CCOc1c(N)ncnc1-c1cccc(-n2ccc3cc(C4CC4)cc(F)c3c2=O)c1 [Example 12, N-(2-((4-Amino-6-(3-(6-cyclopropyl-8-fluoro-1-oxoisoquinolin-2(1H)-yl)phenyl)pyrimidin-5-yl)oxy)ethyl)-N-methylacrylamide]",459
5,CC#CC(=O)N[C@@H](C)COc1c(N)ncnc1-c1cc(F)cc(NC(=O)c2ccc(C3CC3)cc2F)c1C [Example 18],419
6,"C=CC(=O)N1CC[C@H]1COc1c(N)ncnc1-c1cc(F)cc(N2CCc3cc(C4CC4)ccc3C2=O)c1CO [Example 35, (S)-2-(3-(5-((1-Acryloylazetidin-2-yl)methoxy)-6-aminopyrimidin-4-yl)-5-fluoro-2-(hydroxymethyl)phenyl)-6-cyclopropyl-3,4-dihydroisoquinolin-1(2H)-one]",72
7,"Cc1c(NC(=O)c2ccc(C3CC3)cc2F)cc(F)cc1-c1ncnc(N)c1OCCN(C)C(=O)C1CO1 (stereo not shown) [Example 11, N-(2-((4-Amino-6-(3-(4-cyclopropyl-2-fluorobenzamido)-5-fluoro-2-methylphenyl)pyrimidin-5-yl)oxy)ethyl)-N-methyloxirane-2-carboxamide]",323
8,CC#CC(=O)N(C)[C@@H](C)COc1c(N)ncnc1-c1cc(F)cc(NC(=O)c2ccc(C3CC3)cc2F)c1C [Example 20],330
9,"C=CC(=O)N1C[C@H](F)C[C@H]1COc1c(N)ncnc1-c1cc(F)cc(NC(=O)c2ccc(C3CC3)cc2F)c1C [Example 31, N-(3-(5-(((2S,4R)-1-Acryloyl-4-fluoropyrrolidin-2-yl)methoxy)-6-aminopyrimidin-4-yl)-5-fluoro-2-methylphenyl)-4-cyclopropyl-2-fluorobenzamide]",25
10,"C=CC(=O)N1CCC[C@@H](COc2c(N)ncnc2-c2cc(F)cc(NC(=O)c3ccc(C4CC4)cc3F)c2C)C1 [Example 37, (R)—N-(3-(5-((1-Acryloylpiperidin-3-yl)methoxy)-6-aminopyrimidin-4-yl)-5-fluoro-2-methylphenyl)-4-cyclopropyl-2-fluorobenzamide]",968
11,"C#CC(=O)N1CC(Oc2c(N)ncnc2-c2cc(F)cc(NC(=O)c3ccc(C4CC4)cc3F)c2C)C1 [Example 3, N-(3-(6-Amino-5-((1-propioloylazetidin-3-yl)oxy)pyrimidin-4-yl)-5-fluoro-2-methylphenyl)-4-cyclopropyl-2-fluorobenzamide]",124
12,"C=CC(=O)N[C@@H](C)COc1c(N)ncnc1-c1cc(F)cc(NC(=O)c2ccc(C3CC3)cc2F)c1C [Example 17, (S)—N-(3-(5-(2-Acrylamidopropoxy)-6-aminopyrimidin-4-yl)-5-fluoro-2-methylphenyl)-4-cyclopropyl-2-fluorobenzamide]",246
13,"C=CC(=O)N1C[C@H](OC)C[C@H]1COc1c(N)ncnc1-c1cc(F)cc(N2CCc3cc(C4CC4)ccc3C2=O)c1CO [Example 28, 2-(3-(5-(((2S,4R)-1-Acryloyl-4-methoxypyrrolidin-2-yl)methoxy)-6-aminopyrimidin-4-yl)-5-fluoro-2-(hydroxymethyl)phenyl)-6-cyclopropyl-3,4-dihydroisoquinolin-1(2H)-one]",33
14,"C=CC(=O)N(C)CCOc1c(N)ncnc1-c1cc(F)cc(N2CCc3cc(C4CC4)ccc3C2=O)c1CO [Example 25, N-(2-((4-Amino-6-(3-(6-cyclopropyl-1-oxo-3,4-dihydroisoquinolin-2(1H)-yl)-5-fluoro-2-(hydroxymethyl)phenyl)pyrimidin-5-yl)oxy)ethyl)-N-methylacrylamide]",65
15,"C=CC(=O)N1C[C@@H](OC)C[C@H]1COc1c(N)ncnc1-c1cc(F)cc(NC(=O)c2ccc(C3CC3)cc2F)c1C [Example 29, N-(3-(5-(((2S,4S)-1-Acryloyl-4-methoxypyrrolidin-2-yl)methoxy)-6-aminopyrimidin-4-yl)-5-fluoro-2-methylphenyl)-4-cyclopropyl-2-fluorobenzamide]",134
16,"CC#CC(=O)N1C[C@H](F)C[C@H]1COc1c(N)ncnc1-c1cc(F)cc(NC(=O)c2ccc(C3CC3)cc2F)c1C [Example 32, N-(3-(6-Amino-5-(((2S,4R)-1-(but-2-ynoyl)-4-fluoropyrrolidin-2-yl)methoxy)pyrimidin-4-yl)-5-fluoro-2-methylphenyl)-4-cyclopropyl-2-fluorobenzamide]",55
17,"C=CC(=O)N1C[C@H](OC)C[C@H]1COc1c(N)ncnc1-c1cc(F)cc(NC(=O)c2ccc(C3CC3)cc2F)c1C [Example 26, N-(3-(5-(((2S,4R)-1-Acryloyl-4-methoxypyrrolidin-2-yl)methoxy)-6-aminopyrimidin-4-yl)-5-fluoro-2-methylphenyl)-4-cyclopropyl-2-fluorobenzamide]",51
18,"C=CC(=O)N(CCF)CCOc1c(N)ncnc1-c1cc(F)cc(NC(=O)c2ccc(C3CC3)cc2F)c1C [Example 15, N-(3-(6-Amino-5-(2-(N-(2-fluoroethyl)acrylamido)ethoxy)pyrimidin-4-yl)-5-fluoro-2-methylphenyl)-4-cyclopropyl-2-fluorobenzamide]",29
19,"CC#CC(=O)N1C[C@H](OC)C[C@H]1COc1c(N)ncnc1-c1cc(F)cc(NC(=O)c2ccc(C3CC3)cc2F)c1C [Example 27, N-(3-(6-Amino-5-(((2S,4R)-1-(but-2-ynoyl)-4-methoxypyrrolidin-2-yl)methoxy)pyrimidin-4-yl)-5-fluoro-2-methylphenyl)-4-cyclopropyl-2-fluorobenzamide]",76
20,"CC#CC(=O)N1CC(Oc2c(N)ncnc2-c2cc(F)cc(NC(=O)c3ccc(C4CC4)cc3F)c2C)C1 [Example 4, N-(3-(6-Amino-5-((1-(but-2-ynoyl)azetidin-3-yl)oxy)pyrimidin-4-yl)-5-fluoro-2-methylphenyl)-4-cyclopropyl-2-fluorobenzamide]",376
21,C#CC(=O)N1CC[C@H]1COc1c(N)ncnc1-c1cc(F)cc(NC(=O)c2ccc(C3CC3)cc2F)c1C [Example 34],208
22,"C=CC(=O)N1CC[C@H](OC)[C@H]1COc1c(N)ncnc1-c1cc(F)cc(NC(=O)c2ccc(C3CC3)cc2F)c1C [Example 38, N-(3-(5-(((2R,3S)-1-Acryloyl-3-methoxypyrrolidin-2-yl)methoxy)-6-aminopyrimidin-4-yl)-5-fluoro-2-methylphenyl)-4-cyclopropyl-2-fluorobenzamide]",70
23,"COC/C=C/C(=O)N(C)CCOc1c(N)ncnc1-c1cc(F)cc(NC(=O)c2ccc(C3CC3)cc2F)c1C [Example 9, (E)-N-(3-(6-Amino-5-(2-(4-methoxy-N-methylbut-2-enamido)ethoxy)pyrimidin-4-yl)-5-fluoro-2-methylphenyl)-4-cyclopropyl-2-fluorobenzamide]",240
24,"C/C=C/C(=O)N1CC(Oc2c(N)ncnc2-c2cc(F)cc(NC(=O)c3ccc(C4CC4)cc3F)c2C)C1 [Example 2, (E)-N-(3-(6-Amino-5-((1-(but-2-enoyl)azetidin-3-yl)oxy)pyrimidin-4-yl)-5-fluoro-2-methylphenyl)-4-cyclopropyl-2-fluorobenzamide]",1110
25,CC#CC(=O)N1CCC[C@H]1COc1c(N)ncnc1-c1cc(F)cc(NC(=O)c2ccc(C3CC3)cc2F)c1C [Example 23],57
26,"C=CC(=O)N1CCC[C@H]1COc1c(N)ncnc1-c1cc(F)cc(N2CCc3cc(C4CC4)ccc3C2=O)c1CO [Example 24, (S)-2-(3-(5-((1-Acryloylpyrrolidin-2-yl)methoxy)-6-aminopyrimidin-4-yl)-5-fluoro-2-(hydroxymethyl)phenyl)-6-cyclopropyl-3,4-dihydroisoquinolin-1(2H)-one]",32
27,"C=CC(=O)N1C[C@H](C#N)C[C@H]1COc1c(N)ncnc1-c1cc(F)cc(NC(=O)c2ccc(C3CC3)cc2F)c1C [Example 39, N-(3-(5-(((2S,4R)-1-Acryloyl-4-cyanopyrrolidin-2-yl)methoxy)-6-aminopyrimidin-4-yl)-5-fluoro-2-methylphenyl)-4-cyclopropyl-2-fluorobenzamide]",176
28,"C=CC(=O)N(C)[C@@H](C)COc1c(N)ncnc1-c1cc(F)cc(NC(=O)c2ccc(C3CC3)cc2F)c1C [Example 19, (S)—N-(3-(6-Amino-5-(2-(N-methylacrylamido)propoxy)pyrimidin-4-yl)-5-fluoro-2-methylphenyl)-4-cyclopropyl-2-fluorobenzamide]",136
